Experimental data published in patent US20060069132A1, “Azolecarboxamide herbicides” (priority 2004, published 2006).

System: morningglory
Experiment: Test A pre-/postemergence herbicide test
Type: in vivo, Ipomoea spp.
Method in brief: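 Greenhouse injury scoring (0–100, complete control = 100) at approximately ten days follows simultaneous pre- and postemergence application. Soil received a directed spray after seeding; seedlings of 2–10 cm at the one- to two-leaf stage were sprayed to runoff.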

[1] = Postemergence, 500 g ai/ha, 0 to 100 scale, 0 no effect, 100 complete control
[2] = Postemergence, 2000 g ai/ha, 0 to 100 scale, 0 no effect, 100 complete control
[3] = Preemergence, 2000 g ai/ha, visual rating, 0 to 100 scale (0 no effect, 100 complete control)
[4] = preemergence, 500 g ai/ha, visual injury, 0 to 100 scale (0 no effect, 100 complete control)
[5] = Preemergence, 500 g ai/ha, visual rating, 0 to 100 scale (0 no effect, 100 complete control)

SMILES | Morningglory plant response rating [1] | Plant response rating, Morningglory [2] | Morningglory plant response rating [3] | Morningglory plant response rating [4] | Morningglory plant response rating [5] | Morningglory plant response rating (Postemergence, 125 g ai/ha, 0 to 100 scale, 0 no effect, 100 complete control) | Plant response rating, Morningglory [1] | Morningglory plant response rating (preemergence, 125 g ai/ha, visual injury, 0 to 100 scale (0 no effect, 100 complete control)) | Morningglory plant response rating (Preemergence, 2000 g ai/ha, 0 to 100 scale, 0 no effect, 100 complete control)
C#CCNC(=O)c1cc(NC(=O)c2cc(C(C)(C)C)nn2CC)ccn1 [Compound 283] | 0 | 0 | 10 | 0 |  |  |  |  | 
CCOc1cccc(NC(=O)c2cc(C(C)(C)C)nn2CC)c1 [Compound 136] | 20 | 40 | 45 |  | 20 |  |  |  | 
CCn1nc(C(C)(C)C)cc1C(=O)Nc1cccc(OCCCF)c1 [Compound 138] | 15 | 40 | 45 |  | 15 |  |  |  | 
CCN(C(C)=O)C(=O)c1ccc(F)c(NC(=O)c2cc(C(C)(C)C)nn2CC)c1 [Compound 413] | 10 | 20 | 15 | 5 |  |  |  |  | 
CCn1nc(C(C)(C)C)cc1C(=O)Nc1nc(C(=O)N2CC=CC2)ccc1F [Compound 281] | 10 | 15 | 25 | 5 |  |  |  |  | 
C#CCNC(=O)c1cccc(NC(=O)c2sc(C(C)(C)C)nc2CC)c1 [Compound 319] | 15 | 25 | 60 | 20 |  |  |  |  | 
CCn1nc(C(C)(C)C)cc1C(=O)Nc1cccc(C(=O)NC(C)C)c1 [Compound 51] |  |  |  |  | 15 | 10 | 35 | 10 | 
CCn1nc(C(C)(C)C)cc1C(=O)Nc1cccc(C(=O)NCCF)c1 [Compound 45] |  | 25 |  |  | 15 |  | 25 |  | 75
CCn1nc(C(C)(C)C)cc1C(=O)Nc1cncc(C(=O)N2CC=CC2)n1 [Compound 290] | 20 | 30 | 40 | 10 |  |  |  |  | 
CCc1nc(C(C)(C)C)sc1C(=O)Nc1cccc(C(=O)NCCF)c1 [Compound 209] | 0 | 15 | 40 | 20 |  |  |  |  | 
CCn1nc(C(C)(C)C)cc1C(=O)Nc1cccc(C(C)=O)c1 [Compound 122] | 30 | 65 | 30 |  | 25 |  |  |  | 
CCNC(=O)c1ccc(F)c(NC(=O)c2cc(C(C)(C)C)nn2CC)n1 [Compound 278] | 10 | 5 | 25 | 10 |  |  |  |  | 
CCc1nc(C(C)(C)C)sc1C(=O)Nc1cccc(C(=O)NC(C)(C)C)n1 [Compound 216] | 20 | 20 | 15 | 0 |  |  |  |  | 
